Results taken from patent US20060024691A1, “Novel pathways in the etiology of cancer” (Buck Institute for Age Research, priority 2004, published 2006).
“Also recorded” adds a separate entry of the source. Read-outs that look alike come from different tables or passages of the source. Peptide text beside a SMILES is read from it. * marks the point of attachment. Cbz = O=C(OCc1ccccc1)*

Legend:
[1] = test system: ERα Ser-167 (67 kD ERα and 52 kD ERα variant); assay type: cell-based, human; settings: for block of K3-induced p-Ser-167 ERα formation: MCF7 cells, co-treatment with K3
Protocol: (§1) Human breast cancer cell lines MCF7 and T47D were obtained from the American Type Culture Collection (ATCC). MCF7 cells were maintained in Dulbecco's Modification of Eagle's Medium (Cellgro) supplemented with 10% fetal bovine serum (Cellgro), 1% penicillin/streptomycin (Cellgro) and 10 μg/ml insulin (Sigma). T47D cells were maintained in RPMI (Cellgro) supplemented with 10% fetal bovine serum, 1% penicillin/streptomycin and 10 μg/ml insulin. Treatment conditions for both cell lines involved plating ˜1×10^6 cells in normal media onto 10 cm dishes, attachment and growth for 24 hours followed by a change to estrogen-free culture conditions (phenol red-free DME H-16 supplemented with 10% charcoal stripped serum, 1% penicillin/streptomycin and 10 μg/ml insulin) for an additional 24 hours. Cells were then treated as indicated for 30 minutes before extract preparation. Indicated conditions involved 30 minute pretreatments.
(§2) Following aspiration of the media and one ice cold PBS wash, cells growing on 10 cm dishes were harvested using a cell scraper and 0.7 ml of ice cold cell lyses buffer ([…], 1.5 mM MgCl2, […] KCl, 1 mM DTT, […] NaFl, 5% glycerol, 0.45% NP40 (Igepal, Sigma) and mincomplete protease inhibitors (Roche)). […] For preparation of high-salt nuclear extracts (nucleoplasm), isolated nuclei were resuspended for 20 minutes in ice cold extraction buffer (0.4 M NaCl, 25 mM Tris pH 7.5, 1 mM DTT, 20% glycerol, 10 mM NaFl and min-complete protease inhibitors (Roche)) followed by a 4° C. centrifugation at 16,000×g for 15 minutes.
(§3) Equal amounts of protein from the various extracts were mixed with 2× SDS sample buffer (125 mM Tris pH6.8, 20% glycerol, 2% SDS, 0.28 M 2-mercaptoethanol and0.5% Bromphenol Blue), heated for 5 minutes at 90° C. and electrophoresed on NuPAGE 4-12% Bis-Tris gels (Invitrogen) using NuPAGE MOPS SDS running buffer (Invitrogen) and full range Rainbow recombinant protein molecular weight markers (Amersham Pharmacia). […] Membranes were then blocked for 30 minutes in blocking buffer (150 mM NaCl, 20 mM Tris pH 7.5, 0.3% Tween-20 and 4% Nonfat dry milk powerby weight).

[2] = test system: ERα Ser-118 (67 kD ERα and 52 kD ERα variant); assay type: cell-based, human; settings: for Ser-118 phosphorylation of ER induced by treatment: MCF-7/T47D cells, charcoal-stripped media, 30 min, menadione 100 μM, estradiol 10 nM, other quinones at equitoxic doses
Protocol: as §1, §2, §3

ERK1/ERK2 = experiment: MAPK activation: ERK1/ERK2 phosphorylation, Western blot; assay type: cell-based, human; settings: MCF7 cells; for effect on K3 induced phospho-ERK1/2 formation (MAPK activation): co-treatment with K3
Protocol: as §1
For preparation of high-salt nuclear extracts (nucleoplasm), isolated nuclei were resuspended for 20 minutes in ice cold extraction buffer (0.4 M NaCl, 25 mM Tris pH 7.5, 1 mM DTT, 20% glycerol, 10 mM NaFl and min-complete protease inhibitors (Roche)) followed by a 4° C. centrifugation at 16,000×g for 15 minutes.
Membranes were then blocked for 30 minutes in blocking buffer (150 mM NaCl, 20 mM Tris pH 7.5, 0.3% Tween-20 and 4% Nonfat dry milk powerby weight).

[3] = test system: p50 and p65 NFκB subunits; experiment: Immunoblot of nuclear p50 and p65 NFκB subunits in MCF-7 cells; assay type: cell-based, human; settings: MCF-7; MG-132 25 μM, PS-341 5 μM, PDTC 100 μM, PA 50 μM
Protocol: (§4) PS-341 was kindly provided by Millennium Pharmaceuticals Inc. (Cambridge, Mass.). […] For assessment of combined treatment effects on cell viability, 2×10^4 cells (MCF-7, MCF-7/HER2, BT474) grown in 24-well plates were first treated with tamoxifen (dissolved in ethanol) and/or parthenolide (dissolved in DMSO); for the combination treatment pathenolide was added 4 h before addition of tamoxifen. Cell viability was measured 18 h after tamoxifen treatment using the sulforhodamine B (SRB) assay (Skehan, et al. 1990). Briefly, cells fixed with trichloroacetic acid were stained for 30 min with 0.4% SRB dissolved in 1% acetic acid. Unbound dye was removed by four washes with 1% acetic acid, and protein-bound dye was extracted with 10 mM unbuffered Tris base [tris(hydroxymethyl)aminomethane] for determination of optical density at 564 nm.
(§5) Fractionation of control and treated cells into cytoplasmic and nuclear extracts was performed as previously described (Dignam et al., 1983), with minor modification. Cells harvested on ice were washed twice with cold PBS, scraped and resuspended in 1.0 ml hypotonic buffer (20 mM HEPES, pH 7.0; 10 mM KCl; 1 mM MgCl2; 0.1% Triton X-100; 20% glycerol; 0.5 mM DTT) containing a cocktail of protease inhibitors (Mini CompleteTM protease inhibitors, Roche Diagnostics, Mannheim, Germany). The harvested cells were Dounce homogenized on ice, the mixture centrifuged at 3,000 rpm at 4° C. (5 min), and the cytoplasmic fraction separated from the nuclear pellet which was resuspended in elution buffer (20 mM HEPES, pH 7.0; 10 mM KCl; 1 mM MgCl2; 0.42 M NaCl; 0.1% Triton X-100; 20% glycerol; 0.5 mM DTT), supplemented with protease inhibitors. After 20 min at 4° C. the buffered mixture was centrifuged at 14,000 rpm at 4° C. (10 min) to obtain solubilized nuclear extracts which were then stored in aliquots at −80° C. after protein determination (Bradford; BioRad, Hercules, Calif.) and for subsequent NFkB DNA-binding assays.
Antibodies against p50 NFκB, p65 NFκB, IκB, and β-actin proteins were commercially obtained (Santa Cruz Biotechnology, Santa Cruz, Calif.; and Abcam Inc., Cambridge, Mass.). […]; 4% SDS; 20% glycerol; and 10% 2-mercaptoethanol) and resolved by electrophoresis in 4-12% Bis-Tris SDS gradient gels in morpholinepropane sulfonic acid (MOPS) buffer. Separated proteins were transferred onto polyvinylidene difluoride membranes (Millipore Co., Billerica, Mass.), blocked with 5% non-fat milk in PBS containing 0.1% Tween-20, and membranes immunoblotted with the indicated antibodies in blocking solution. […]

NFκB = NFκB DNA-binding by EMSA, nuclear extracts of menadione treated MCF-7 cells; assay type: cell-based, human; settings: 30 min pretreatment: MG-132 25 μM, PS-341 5 μM, PDTC 100 μM, PA 50 μM; then menadione 100 μM 30 min
Protocol: as §4, §5
NFκB DNA-binding activity was measured by two different techniques. Analogous to previous tumor extract scoring of Sp1 DNA-binding protein (Quong et al., 2002), total specific NFκB DNA-binding protein was determined by electrophoretic morbility shift assay (EMSA) as follows. A duplexed oligonucleotide probe (Promega, Madison, Wis.) with sense strand containing the decameric κB consensus binding sequence (underlined) 5′-[…]-3′(SEQ ID NO:4) was end-labeled with [γ-P32]ATP (PerkinElmer, Boston, Mass.) using T4 polynucleotide kinase (Promega, Madison, Wis.) and purified with G-50 Sephadex Bio-Spin columns (BioRad, Hercules, Calif.). […]

NF-κB p65 = NF-κB p65 DNA-binding (TransAM assay); assay type: cell-based, human; settings: ER-positive cells, 10 μM, 30 min
Protocol: (§6) Quantitative p50 and p65 NFκB DNA-binding were also determined using ELISA based Trans-AMTM assays in accordance with the manufacturer's instructions (ActiveMotif; Carlsbad, Calif.). In these commercial kits, a duplexed NFκB oligonucleotide containing the same κB consensus sequence described for the EMSA assay above is attached to the surface of 96-well plates. Activated NFκB in tumor or nuclear extracts that is first bound to the attached oligonucleotide is specifically and quantitatively detected by subsequent incubation with p50 or p65 specific antibody followed by an enzyme (HRP)-linked secondary for colorimetric (OD450 nm absorbance) scoring. Standard curves to establish the linear assay range for Trans-AMTM determinations of p50 and p65 NFκB DNA-binding activities were performed using graded amounts of control (IL-1 treated) HeLa cell nuclear extracts (0.625 to 10 μg/well) and for comparison with a panel of nuclear extracts from six human breast cancer cell lines (MCF-7, T47D, BT474, MCF-7/HER2, SkBr3, MDA-231).

NF-κB p50 = NF-κB p50 DNA-binding (TransAM assay); assay type: cell-based, human; settings: ER-positive cells, 10 μM, 30 min
Protocol: as §6

BT474 cells = settings: 5-7 days, concentrations approaching 1000 nM; cited from earlier work
MCF-7 cells = settings: 5-7 days, concentrations approaching 1000 nM; cited from earlier work
MCF-7/HER2 cells = settings: 5-7 days, concentrations approaching 1000 nM; cited from earlier work

C[C@]12CC[C@@H]3c4ccc(O)c(O)c4CC[C@H]3[C@@H]1CCC2=O [4-OHE, 4-hydroxyestrone]
Ser-167 phosphorylation of ERα induced by treatment ([1]; MCF7 nuclear extracts, 30 min): induced Ser-118 and Ser-167 phosphorylation of the 52 kD ERα nuclear variant | Ser-118 phosphorylation of ER induced by treatment [2]: induced Ser-118 and Ser-167 phosphorylation of the 52 kD ERα nuclear variant | ERK1/ERK2 phosphorylation induced by treatment (ERK1/ERK2; 30 minutes): phosphorylating ERK1/2

COC1=C(OC)C(=O)c2ccccc2C1=O [DMNQ]
Ser-118 phosphorylation of ER induced by treatment [2]: no Ser˜118 phosphorylation

CC(C)C[C@@H](C=O)NC(=O)[C@H](CC(C)C)NC(=O)[C@H](CC(C)C)NC(=O)OCc1ccccc1 [MG-132] (Cbz-Leu-Leu-Leu-aldehyde)
nuclear p50 and p65 NFκB subunit content, inhibitor pretreatment before menadione [3]: marked reductions | inhibition of menadione-induced NFκB DNA-binding / activation (NFκB): complete inhibition; also recorded: completely inhibited | decrease in the DNA-binding of p65 subunit (NF-κB p65): 60% | decrease in the DNA-binding of p50 subunit (NF-κB p50): 60%

CC(=O)N[C@@H](CS)C(=O)O [NAC, N-acetyl cysteine]
block of K3-induced p-Ser-167 ERα formation [1]: blocked | block of K3-induced p-Ser-167 ERα formation ([1]; listed as N-acetyl cysteine): effectively block | effect on K3 induced phospho-ERK1/2 formation (MAPK activation) (ERK1/ERK2): blocked; also recorded: completely block | effect on K3 induced phospho-ERK1/2 formation (MAPK activation) (ERK1/ERK2; listed as N-acetyl cysteine): without inhibiting MAPK activity

S=C(S)N1CCCC1 [PDTC, pyrrolidine dithiocarbamate]
nuclear p50 and p65 NFκB subunit content, inhibitor pretreatment before menadione [3]: marked reductions | inhibition of menadione-induced NFκB DNA-binding / activation (NFκB): complete inhibition

CC(C)C[C@H](NC(=O)[C@H](Cc1ccccc1)NC(=O)c1cnccn1)B(O)O [PS-341]
nuclear p50 and p65 NFκB subunit content, inhibitor pretreatment before menadione [3]: marked reductions | inhibition of menadione-induced NFκB DNA-binding / activation (NFκB): complete inhibition; also recorded: completely inhibited

C[S+]([O-])c1ccc(-c2nc(-c3ccncc3)c(-c3ccc(F)cc3)[nH]2)cc1 (stereo not drawn) [SB203580]
block of K3-induced p-Ser-167 ERα formation [1]: no affect

N#CC(=C(/N)Sc1ccccc1N)/C(C#N)=C(\N)Sc1ccccc1N [U0126]
effect on K3 induced phospho-ERK1/2 formation (MAPK activation) (ERK1/ERK2): only minimal activation detectable

O=c1oc2ccccc2c(O)c1Cc1c(O)c2ccccc2oc1=O [dicumarol]
block of K3-induced p-Ser-167 ERα formation [1]: virtually complete inhibition; also recorded: effectively block | inhibition of K3-induced p-Ser-118 ERα ([2]; MCF7 cells, dicumarol added concurrently with K3): at least 75%

O=C1C=CC(=O)C=C1 [p-benzoquinone]
Ser-118 phosphorylation of ER induced by treatment [2]: no Ser˜118 phosphorylation

CC/C(=C(\c1ccccc1)c1ccc(OCCN(C)C)cc1)c1ccccc1 [tamoxifen, [Z]-1-[p-dimethylaminoethoxyphenyl]-1,2-diphenyl-1 butene]
cellular reductions (viable cell number) (BT474 cells): ~25% | reduction in viable cell number (MCF-7 cells): ~50% | cellular reductions (viable cell number) (MCF-7/HER2 cells): ~25%
